Experiment [1] relates to K562 (chronic myelogenous leukaemia). As to the kind of experiment: Effect of compounds on tumor cell lines (assay of Latham et al.), K562. The format is cell-based. The following applies: K562 cells, 96 hours after treatment, 1 μM to 100 μM; read-out: K 562 potency (IC50). Put shortly: (§1)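 After 96 h of exposure to compound (1–100 μM in DMSO; one compound at 0.1–100 μM), effects were scored by inverted-microscope inspection, with trypan blue viable counts by hemacytometer when required. Cells were seeded at 2.5×10^4 per well and dosed 24 h after plating.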

The next experiment relates to DU145 (prostate cancer). As to the kind of experiment: Effect of compounds on tumor cell lines (assay of Latham et al.), DU145. It is filed as cell-based. The settings on record: DU145 cells, 96 hours after treatment, 1 μM to 100 μM; read-out: DU 145 potency (IC50). Put shortly:
as §1

Drawing on patent US8808702B2, “Sulfide, sulfoxide and sulfone chalcone analogues, derivatives thereof and therapeutic uses thereof” (Temple University-of the Commonwealth System of Higher …, priority 2006, dated 2014), this text covers IC50 for 53 compounds.

The IC50 is the concentration that gives 50% inhibition. For `O=C(O)c1ccc(C(=O)C(=Cc2ccc(Cl)c([N+](=O)[O-])c2)SCc2ccc(F)cc2)cc1` [Example 255], the IC50 in experiment [1] is no more than 1 µM; with DU145 (prostate cancer) it was 1 to 10 µM.
For `O=C(C(=Cc1ccc(Cl)cc1)SCc1ccc(F)cc1)c1ccc(Cl)cc1` [Example 256], in that order: 1 to 10 µM and 10 to 25 µM.
For the compound `CCOc1ccc(C=C(SCc2ccc(F)cc2)C(=O)c2ccc(Br)cc2)cc1OC` [Example 257], the results for the IC50 (in experiment [1]; with DU145 (prostate cancer)) were 1 to 10 µM and 50 to 100 µM, respectively.
In the case of `O=C(C(=Cc1ccc(F)cc1C(F)(F)F)SCc1ccc(F)cc1)c1ccc(Br)cc1` [Example 260], the IC50 (in experiment [1]; in the experiment on DU145 (prostate cancer)) was 10 to 25 µM each time.
On to `O=C(O)c1ccc(C(=O)C(=Cc2ccc(O)c([N+](=O)[O-])c2)SCc2ccc(F)cc2)cc1` [Example 262], for which the figures for the IC50 (in experiment [1]; with DU145 (prostate cancer)) were 50 to 100 µM and greater than 100 µM, respectively.
For `COc1ccc(C=C(SCc2ccc(F)cc2)C(=O)c2ccc(Br)cc2)cc1` [Example 265], the values for the IC50 (in experiment [1]; with DU145 (prostate cancer)) were 1 to 10 µM and 25 to 50 µM, respectively.
Take `O=C(C(=Cc1c[nH]c2ccc(Cl)cc12)SCc1ccc(F)cc1)c1ccc(Br)cc1` [Example 267]: the IC50 (in experiment [1]; in the experiment on DU145 (prostate cancer)) was 1 to 10 µM each time.
Consider `Cc1ccc(CSC(=Cc2ccc(O)c(O)c2O)C(=O)c2ccc(Cl)cc2)cc1` [Example 270], for which the IC50 (in experiment [1]; with DU145 (prostate cancer)) was 50 to 100 µM in each case.
Regarding `Cc1ccc(CSC(=Cc2cccc(Cl)c2Cl)C(=O)c2ccc(Cl)cc2)cc1` [Example 271], the IC50 (in experiment [1]; in the experiment on DU145 (prostate cancer)) was 25 to 50 µM throughout.
As for `Cc1ccc(CSC(=Cc2c(O)cc(O)cc2O)C(=O)c2ccc(Cl)cc2)cc1` [Example 272], the IC50 (in experiment [1]; in the experiment on DU145 (prostate cancer)) was 50 to 100 µM each time.
Take `Cc1ccc(CSC(=Cc2cc(C)ccc2C)C(=O)c2ccc(Cl)cc2)cc1` [Example 273]: the IC50 (in experiment [1]; in the experiment on DU145 (prostate cancer)) was 10 to 25 µM throughout.
For `Cc1ccc(CSC(=Cc2ccccc2OCc2ccccc2)C(=O)c2ccc(Cl)cc2)cc1` [Example 274], the IC50 (in experiment [1]; in the experiment with DU145 (prostate cancer)) was 1 to 10 µM each time.
With `Cc1ccc(CSC(=Cc2cc([N+](=O)[O-])ccc2F)C(=O)c2ccc(Cl)cc2)cc1` [Example 276], the IC50 (in experiment [1]; in the experiment with DU145 (prostate cancer)) was 1 to 10 µM each time.
As to `Cc1ccc(CSC(=Cc2ccccc2F)C(=O)c2ccc(Br)cc2)cc1` [Example 277], the IC50 was in the range of 1 to 10 µM in experiment [1] and 10 to 25 µM in the experiment on DU145 (prostate cancer).
On to `COc1ccccc1C=C(SCc1ccc(C)cc1)C(=O)c1ccc(Cl)cc1` [Example 279], for which the IC50 (in experiment [1]; in the experiment with DU145 (prostate cancer)) was 10 to 25 µM throughout.
Turning to `Cc1ccc(CSC(=Cc2ccc[nH]2)C(=O)c2ccc(Cl)cc2)cc1` [Example 280], the IC50 in experiment [1] lay within 1 to 10 µM; in the experiment with DU145 (prostate cancer), 25 to 50 µM.
Taken in the same sequence, the figures for `Cc1ccc(CSC(=Cc2cc(Cl)cc(Cl)c2)C(=O)c2ccc(Cl)cc2)cc1` [Example 281] were 10 to 25 µM and 10 to 25 µM.
Taken in the same sequence, the figures for `Cc1ccc(CSC(=Cc2sccc2C)C(=O)c2ccc(Cl)cc2)cc1` [Example 283] were 10 to 25 µM and 10 to 25 µM.
Taken in the same sequence, the figures for `CCN(CC)CCNC(=O)c1c(C)[nH]c(C=C(SCc2ccc(C)cc2)C(=O)c2ccc(C(=O)O)cc2)c1C` [Example 284] were 50 to 100 µM and 50 to 100 µM.
With `Cc1ccc(CSC(=Cc2ccc(N(C)C)cc2)C(=O)c2ccc(Cl)cc2)cc1` [Example 285], the IC50 (in experiment [1]; in the experiment with DU145 (prostate cancer)) was 10 to 25 µM in each case.
In the case of `Cc1ccc(CSC(=Cc2ccc(Br)cc2)C(=O)c2ccc(Cl)cc2)cc1` [Example 286], the half-inhibitory concentration (IC50) in experiment [1] was in the range of 1 to 10 µM; in the experiment with DU145 (prostate cancer) it was 10 to 25 µM.
As for `Cc1ccc(CSC(=Cc2ccc(Cl)c([N+](=O)[O-])c2)C(=O)c2ccc(C(=O)O)cc2)cc1` [Example 287], the IC50 in experiment [1] was no more than 1 µM; in the experiment on DU145 (prostate cancer), 1 to 10 µM.
Regarding `Cc1ccc(CSC(=Cc2ccc(Cl)cc2)C(=O)c2ccc(Cl)cc2)cc1` [Example 288], the IC50 in experiment [1] is 1 to 10 µM; in the experiment with DU145 (prostate cancer) it was 10 to 25 µM.
For `CCOc1ccc(C=C(SCc2ccc(C)cc2)C(=O)c2ccc(Cl)cc2)cc1OC` [Example 289], the IC50 (in experiment [1]; in the experiment on DU145 (prostate cancer)) was 25 to 50 µM throughout.
As to `Cc1ccc(CSC(=Cc2ccc(F)cc2C(F)(F)F)C(=O)c2ccc(Cl)cc2)cc1` [Example 290], the IC50 (in experiment [1]; in the experiment on DU145 (prostate cancer)) was 50 to 100 µM in each case.
In the case of `Cc1ccc(CSC(=Cc2ccc(F)c(C)c2)C(=O)c2ccc(Cl)cc2)cc1` [Example 291], the IC50 in experiment [1] lay within 10 to 25 µM; in the experiment on DU145 (prostate cancer), 25 to 50 µM.
Taken in the same sequence, the figures for `Cc1ccc(CSC(=Cc2ccc(O)cc2)C(=O)c2ccc(Cl)cc2)cc1` [Example 292] were 1 to 10 µM and 10 to 25 µM.
With `CSc1ccc(C=C(SCc2ccc(C)cc2)C(=O)c2ccc(Br)cc2)cc1` [Example 293], the values for the IC50 (in experiment [1]; in the experiment with DU145 (prostate cancer)) were 25 to 50 µM and greater than 100 µM, respectively.
Turning to `CSc1ccc(C=C(SCc2ccc(C)cc2)C(=O)c2ccc(Cl)cc2)cc1` [Example 294], the IC50 lay in the range of 10 to 25 µM in experiment [1] and 25 to 50 µM in the experiment on DU145 (prostate cancer).
Take `Cc1ccc(CSC(=Cc2c[nH]c3ccc(Br)cc23)C(=O)c2ccc(Cl)cc2)cc1` [Example 295]: the IC50 (in experiment [1]; with DU145 (prostate cancer)) was 1 to 10 µM in each case.
As for `Cc1ccc(CSC(=Cc2c[nH]c3ccc(Cl)cc23)C(=O)c2ccc(Cl)cc2)cc1` [Example 296], the IC50 (in experiment [1]; with DU145 (prostate cancer)) was 1 to 10 µM each time.
Turning to `Cc1ccc(CSC(=Cc2ccc(C)s2)C(=O)c2ccc(Cl)cc2)cc1` [Example 298], the IC50 (in experiment [1]; in the experiment with DU145 (prostate cancer)) was 50 to 100 µM each time.
Regarding `O=C(O)c1ccc(C(=O)C(=Cc2ccc(Br)c([N+](=O)[O-])c2)SCc2ccc(Cl)cc2Cl)cc1` [Example 299], the IC50 was no more than 1 µM in experiment [1] and 1 to 10 µM in the experiment on DU145 (prostate cancer).
As for `O=C(O)c1ccc(C(=O)C(=Cc2ccc(Cl)c([N+](=O)[O-])c2)SCc2ccc(Cl)cc2Cl)cc1` [Example 300], the IC50 in experiment [1] was no more than 1 µM; in the experiment on DU145 (prostate cancer), 1 to 10 µM.
As to `O=C(O)c1ccc(C(=O)C(=Cc2ccc(F)c([N+](=O)[O-])c2)SCc2ccc(Cl)cc2Cl)cc1` [Example 301], the IC50 in experiment [1] is no more than 1 µM; with DU145 (prostate cancer) it was 1 to 10 µM.
With `O=C(O)c1ccc(C(=O)C(=Cc2ccc(Br)c([N+](=O)[O-])c2)SCc2ccccc2Cl)cc1` [Example 302], the IC50 (in experiment [1]; with DU145 (prostate cancer)) was 1 to 10 µM in each case.
As for `O=C(O)c1ccc(C(=O)C(=Cc2ccc(F)c([N+](=O)[O-])c2)SCc2ccccc2Cl)cc1` [Example 303], the IC50 (in experiment [1]; in the experiment with DU145 (prostate cancer)) was 1 to 10 µM throughout.
On to `O=C(O)c1ccc(C(=O)C(=Cc2ccc(Cl)c([N+](=O)[O-])c2)SCc2ccccc2F)cc1` [Example 304], for which the values for the IC50 (in experiment [1]; in the experiment with DU145 (prostate cancer)) were no more than 1 µM and 1 to 10 µM, respectively.
As to `COc1cc(OC)c(OC)cc1C=C(SCc1ccc(Br)cc1)C(=O)c1ccc([N+](=O)[O-])cc1` [Example 305], the IC50 (in experiment [1]; with DU145 (prostate cancer)) was 10 to 25 µM throughout.
With `O=C(O)c1ccc(C(=O)C(=Cc2ccccc2F)SCc2ccc(Br)cc2)cc1` [Example 306], the IC50 (in experiment [1]; in the experiment on DU145 (prostate cancer)) was 10 to 25 µM each time.
Take `CC1=CC(=O)C(C)=C(C(C)(C)CC(=O)Oc2cc(C=C(SCc3ccc(Br)cc3)C(=O)c3ccc(Br)cc3)ccc2[N+](=O)[O-])C1=O` [Example 307]: the IC50 (in experiment [1]; in the experiment with DU145 (prostate cancer)) was 1 to 10 µM throughout.
Regarding `CN1CCN(c2ccc(C=C(SCc3ccc(Br)cc3)C(=O)c3ccc(C(=O)O)cc3)cc2[N+](=O)[O-])CC1` [Example 308], the IC50 in experiment [1] is 1 to 10 µM; in the experiment with DU145 (prostate cancer) it was 10 to 25 µM.
Taken in the same sequence, the figures for `CCOC(=O)c1c(C)[nH]c(C=C(SCc2ccc(Br)cc2)C(=O)c2ccc(SCc3ccc(Br)cc3)c([N+](=O)[O-])c2)c1C` [Example 309] were greater than 100 µM and greater than 100 µM.
`O=C(C(=Cc1ccc(F)c([N+](=O)[O-])c1)SCc1ccc(Br)cc1)c1c(F)c(F)c(F)c(F)c1F` [Example 310]: the IC50 (in experiment [1]; in the experiment on DU145 (prostate cancer)) was 1 to 10 µM each time.
With `CN1CCN(CCNC(=O)c2ccc(C(=O)C(=Cc3ccc(F)c([N+](=O)[O-])c3)SCc3ccc(Br)cc3)cc2)CC1` [Example 311], the results for the IC50 (in experiment [1]; with DU145 (prostate cancer)) were no more than 1 µM and 1 to 10 µM, respectively.
For `O=C(NCCN1CCOCC1)c1ccc(C(=O)C(=Cc2ccc(F)c([N+](=O)[O-])c2)SCc2ccc(Br)cc2)cc1` [Example 312], in that order: 1 to 10 µM and 1 to 10 µM.
In the case of `CCN(CC)CCNC(=O)c1ccc(C(=O)C(=Cc2ccc(F)c([N+](=O)[O-])c2)SCc2ccc(Br)cc2)cc1` [Example 313], the IC50 in experiment [1] is no more than 1 µM; in the experiment with DU145 (prostate cancer) it was 1 to 10 µM.
For the compound `CN1CCN(CCCNC(=O)c2ccc(C(=O)C(=Cc3ccc(F)c([N+](=O)[O-])c3)SCc3ccc(Br)cc3)cc2)CC1` [Example 314], the IC50 (in experiment [1]; with DU145 (prostate cancer)) was 1 to 10 µM each time.
As to `O=C(C(=Cc1ccc(F)c([N+](=O)[O-])c1)SCc1ccc(Br)cc1)c1ccc(C(=O)N2CCN(c3ccc(C(F)(F)F)cn3)CC2)cc1` [Example 315], the IC50 (in experiment [1]; in the experiment on DU145 (prostate cancer)) was 1 to 10 µM in each case.
With `O=C(C(=Cc1ccc(F)c([N+](=O)[O-])c1)SCc1ccc(Br)cc1)c1ccc(C(=O)N2CCN(CCO)CC2)cc1` [Example 316], the IC50 (in experiment [1]; in the experiment with DU145 (prostate cancer)) was no more than 1 µM throughout.
Take `O=C(C(=Cc1ccc(F)c([N+](=O)[O-])c1)SCc1ccc(Br)cc1)c1ccc(Cl)c([N+](=O)[O-])c1` [Example 317]: the IC50 (in experiment [1]; in the experiment with DU145 (prostate cancer)) was greater than 100 µM throughout.
`O=C(C(=Cc1ccc(F)c([N+](=O)[O-])c1)SCc1ccc(Br)cc1)c1ccc(F)cc1` [Example 318]: the IC50 (in experiment [1]; with DU145 (prostate cancer)) was no more than 1 µM in each case.
Take `O=C(C(=Cc1ccc(F)cc1)SCc1ccc(Br)cc1)c1ccc(SCc2ccc(Br)cc2)c([N+](=O)[O-])c1` [Example 319]: the IC50 (in experiment [1]; in the experiment with DU145 (prostate cancer)) was greater than 100 µM each time.
